What was measured:
[1] = molecular target: T1, Adrenergic receptor alpha-2 (Rattus norvegicus) (UniProt P22086+P19328+P22909); assay: Binding affinity towards alpha-2 adrenergic receptor from rat brain homogenate preparation by displacement of [3H]clonidine at 10e-6 M concentration; format: tissue-based
[2] = molecular target: T2, Adrenergic receptor alpha-1 (Rattus norvegicus, UniProt P15823+P23944+P43140); assay: Binding affinity towards alpha-1 adrenergic receptor from rat brain homogenate preparation by displacement of [3H]prazosin; format: tissue-based
T2 sequence (P15823 whole entry): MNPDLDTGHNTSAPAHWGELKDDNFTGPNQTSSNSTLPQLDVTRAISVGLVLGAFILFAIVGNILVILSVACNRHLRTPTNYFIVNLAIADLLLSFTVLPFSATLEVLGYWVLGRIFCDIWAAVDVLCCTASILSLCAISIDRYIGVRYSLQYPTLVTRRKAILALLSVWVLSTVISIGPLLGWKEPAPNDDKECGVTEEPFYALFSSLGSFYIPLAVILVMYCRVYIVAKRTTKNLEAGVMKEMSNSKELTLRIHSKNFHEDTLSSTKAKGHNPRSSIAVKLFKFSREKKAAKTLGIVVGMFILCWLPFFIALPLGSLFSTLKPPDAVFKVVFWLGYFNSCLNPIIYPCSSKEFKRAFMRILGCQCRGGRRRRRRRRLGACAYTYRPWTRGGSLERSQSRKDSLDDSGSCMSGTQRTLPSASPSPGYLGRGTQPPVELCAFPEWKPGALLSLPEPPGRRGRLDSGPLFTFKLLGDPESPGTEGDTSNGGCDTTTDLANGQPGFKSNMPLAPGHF
T2 sequence (P23944 whole entry): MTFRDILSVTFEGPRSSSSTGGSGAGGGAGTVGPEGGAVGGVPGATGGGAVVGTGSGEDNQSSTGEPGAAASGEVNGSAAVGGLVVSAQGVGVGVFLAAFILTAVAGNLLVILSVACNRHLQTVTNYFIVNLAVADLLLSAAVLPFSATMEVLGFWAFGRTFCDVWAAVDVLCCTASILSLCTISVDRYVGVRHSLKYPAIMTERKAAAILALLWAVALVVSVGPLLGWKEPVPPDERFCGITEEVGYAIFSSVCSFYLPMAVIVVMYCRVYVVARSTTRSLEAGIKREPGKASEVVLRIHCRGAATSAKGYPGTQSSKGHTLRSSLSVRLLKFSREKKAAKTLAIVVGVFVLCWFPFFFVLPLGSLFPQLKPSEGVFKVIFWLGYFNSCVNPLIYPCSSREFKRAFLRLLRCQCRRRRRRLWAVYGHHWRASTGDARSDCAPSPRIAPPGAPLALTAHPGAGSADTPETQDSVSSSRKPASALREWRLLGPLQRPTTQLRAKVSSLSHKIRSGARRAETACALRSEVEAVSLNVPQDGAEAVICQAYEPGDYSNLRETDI
T2 sequence (P43140 whole entry): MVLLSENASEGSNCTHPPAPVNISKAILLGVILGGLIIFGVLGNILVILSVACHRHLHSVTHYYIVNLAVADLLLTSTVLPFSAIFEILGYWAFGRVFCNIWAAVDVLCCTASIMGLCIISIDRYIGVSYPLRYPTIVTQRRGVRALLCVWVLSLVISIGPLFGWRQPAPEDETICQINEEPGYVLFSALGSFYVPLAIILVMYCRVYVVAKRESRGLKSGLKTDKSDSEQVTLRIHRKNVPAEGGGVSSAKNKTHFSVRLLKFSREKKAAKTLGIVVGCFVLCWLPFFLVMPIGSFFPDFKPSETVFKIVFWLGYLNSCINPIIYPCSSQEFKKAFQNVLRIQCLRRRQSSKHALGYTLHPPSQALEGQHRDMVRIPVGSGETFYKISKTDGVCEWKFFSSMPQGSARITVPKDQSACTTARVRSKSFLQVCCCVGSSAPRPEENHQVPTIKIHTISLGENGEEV

Rattus norvegicus [3] = assay: Percent reduction in Spontaneously hypertensive rat blood pressure after 4.5 hr of 3 mg/kg, po administration; format: functional
Rattus norvegicus [4] = assay: Percent reduction in Spontaneously hypertensive rat blood pressure after 1 h of 3 mg/kg, po administration; format: functional
[5] = molecular target: T3, Adrenergic receptor alpha-2 (Rattus norvegicus, UniProt P22086+P19328+P22909); assay: Binding affinity towards alpha-2 adrenergic receptor from rat brain homogenate preparation by displacement of [3H]clonidine; format: tissue-based
T3 sequence (P22086 whole entry): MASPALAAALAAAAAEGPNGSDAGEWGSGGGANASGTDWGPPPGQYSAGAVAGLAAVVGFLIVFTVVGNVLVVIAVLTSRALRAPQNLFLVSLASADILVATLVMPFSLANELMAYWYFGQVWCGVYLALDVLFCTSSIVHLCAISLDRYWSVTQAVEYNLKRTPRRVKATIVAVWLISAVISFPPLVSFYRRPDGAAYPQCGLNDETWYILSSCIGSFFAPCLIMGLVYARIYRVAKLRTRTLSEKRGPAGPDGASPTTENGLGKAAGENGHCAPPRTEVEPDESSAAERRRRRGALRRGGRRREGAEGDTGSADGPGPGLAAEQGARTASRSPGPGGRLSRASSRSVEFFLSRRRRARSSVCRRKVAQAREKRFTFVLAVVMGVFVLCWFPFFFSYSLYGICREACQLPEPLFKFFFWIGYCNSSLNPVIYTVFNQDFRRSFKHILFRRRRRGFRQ
T3 sequence (P19328 whole entry): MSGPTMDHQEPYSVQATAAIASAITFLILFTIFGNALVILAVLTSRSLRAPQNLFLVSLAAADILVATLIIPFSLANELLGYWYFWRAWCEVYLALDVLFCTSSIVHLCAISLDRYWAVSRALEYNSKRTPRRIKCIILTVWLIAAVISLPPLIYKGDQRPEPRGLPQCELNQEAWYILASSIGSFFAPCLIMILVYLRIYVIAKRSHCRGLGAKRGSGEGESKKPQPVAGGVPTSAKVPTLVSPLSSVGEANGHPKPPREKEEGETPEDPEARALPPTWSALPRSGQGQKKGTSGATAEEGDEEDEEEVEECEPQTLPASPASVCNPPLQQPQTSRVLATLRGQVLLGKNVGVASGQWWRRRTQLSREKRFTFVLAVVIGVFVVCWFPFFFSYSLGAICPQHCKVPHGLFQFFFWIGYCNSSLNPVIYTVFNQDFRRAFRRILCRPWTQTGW
T3 sequence (P22909 whole entry): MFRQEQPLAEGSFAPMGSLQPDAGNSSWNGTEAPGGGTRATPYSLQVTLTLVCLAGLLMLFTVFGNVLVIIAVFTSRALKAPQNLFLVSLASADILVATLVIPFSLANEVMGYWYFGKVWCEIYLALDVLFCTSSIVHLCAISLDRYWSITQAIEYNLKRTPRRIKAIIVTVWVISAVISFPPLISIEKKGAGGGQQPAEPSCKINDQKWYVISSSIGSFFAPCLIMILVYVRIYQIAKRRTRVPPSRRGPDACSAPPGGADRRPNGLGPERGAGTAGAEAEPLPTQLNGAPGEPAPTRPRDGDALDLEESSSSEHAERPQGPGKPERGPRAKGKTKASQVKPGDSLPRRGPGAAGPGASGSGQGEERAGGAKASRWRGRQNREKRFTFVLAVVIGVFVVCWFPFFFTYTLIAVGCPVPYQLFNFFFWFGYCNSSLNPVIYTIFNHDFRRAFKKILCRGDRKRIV

[6] = molecular target: T1, Adrenergic receptor alpha-2 (Rattus norvegicus); assay: Binding affinity towards alpha-2 adrenergic receptor from rat brain homogenate preparation by displacement of [3H]clonidine at 10e-6 M; format: tissue-based
[7] = molecular target: T1, Adrenergic receptor alpha-2 (Rattus norvegicus); assay: Binding affinity towards alpha-2 adrenergic receptor from rat brain homogenate preparation by displacement of [3H]clonidine at 10E-6 M; format: tissue-based
Rattus norvegicus [8] = assay: Percent reduction in Spontaneously hypertensive rat blood pressure after 1 hr of 3 mg/kg, po administration; format: functional

| Compound | Displacement [1] | Ki [2] | Ki [5] | Displacement [6] | Displacement [7] | Reduction (Rattus norvegicus [3]) | Reduction (Rattus norvegicus [4]) | Reduction (Rattus norvegicus [8]) |
| --- | --- | --- | --- | --- | --- | --- | --- | --- |
| COc1cc2nc(N3CCN(c4ccccc4)CC3)cc(N)c2cc1OC | – | 1.72 nM | 51.6 nM | – | – | 24% | 8% | – |
| COc1cc2nc(N3CCNCC3)cc(N)c2cc1OC | < 50% | 30.06 nM | – | – | – | 14% | 11% | – |
| COc1cc2nc(N3CCN(C(=O)c4ccccc4)CC3)cc(N)c2cc1OC | – | 0.49 nM | – | < 50% | – | 19% | 19% | – |
| COc1cc2nc(N3CCN(Cc4ccccc4)CC3)cc(N)c2cc1OC | – | – | – | – | – | 10% | 8% | – |
| CCCNC(=O)N1CCN(c2cc(N)c3cc(OC)c(OC)cc3n2)CC1 | < 50% | 0.44 nM | – | – | – | 8% | 3% | – |
| COc1cc2nc(N3CCN(C(=O)Nc4ccccc4)CC3)cc(N)c2cc1OC | – | 0.34 nM | 66 nM | – | – | 25% | 20% | – |
| C=CCNC(=O)N1CCN(c2cc(N)c3cc(OC)c(OC)cc3n2)CC1 | < 50% | 0.29 nM | – | – | – | 17% | 15% | – |
| CCOc1ccnc(N2CCN(c3cc(N)c4cc(OC)c(OC)cc4n3)CC2)n1 | < 50% | 0.42 nM | – | – | – | 22% | 19% | – |
| COc1cc2nc(N3CCN(C(=O)c4ccco4)CC3)nc(N)c2cc1OC [PRAZOSIN] | – | – | – | – | – | 15% | 24% | – |

Now from value to compound, other results behind:

| Displacement [1] | Ki [2] | Ki [5] | Displacement [6] | Displacement [7] | Compound | Reduction (Rattus norvegicus [3]) | Reduction (Rattus norvegicus [4]) | Reduction (Rattus norvegicus [8]) |
| --- | --- | --- | --- | --- | --- | --- | --- | --- |
| < 50% | 0.81 nM | – | – | – | COc1cc2nc(N3CCN(C(=O)C4COc5ccccc5O4)CC3)cc(N)c2cc1OC (stereo not drawn) | 13% | 6% | – |
| < 50% | 2.93 nM | – | – | – | COc1cc2nc(N3CCCCC3)cc(N)c2cc1OC | 6% | 6% | – |
| – | – | – | – | < 50% | COc1cc2nc(N(C)C)cc(N)c2cc1OC | 11% | 12% | – |
| < 50% | 0.63 nM | – | – | – | COc1cc2nc(N3CCN(c4nccc(C)n4)CC3)cc(N)c2cc1OC | 8% | 10% | – |
| < 50% | 0.14 nM | – | – | – | COc1cc2nc(N3CCN(C(=O)c4ccco4)CC3)cc(N)c2cc1OC | 25% | – | 32% |
| – | 1.17 nM | – | – | – | COc1cc2nc(N3CCN(C(C)=O)CC3)cc(N)c2cc1OC | 7% | 4% | – |
| – | 0.46 nM | 55.3 nM | – | – | COc1cc2nc(N3CCN(c4nccc(N(C)C)n4)CC3)cc(N)c2cc1OC | 19% | 16% | – |
